Assay results taken from patent US20260297060A1, “COMPOUNDS FOR THE DEGRADATION OF MUTANT BRAF” (C4 THERAPEUTICS, INC., priority 2023, published 2026).
Like-named read-outs stand apart in the source and are kept apart here.

Assays:
[1] = molecular target: T1, BRAF V600E (Homo sapiens, UniProt P15056+Q96SW2, V600E); test: BRAF V600E HiBiT Degradation Assay; type: cell-based
T1 construct: knock-in of the HiBiT tag to the endogenous BRAF V600E locus; host or cells: A375.10 (A375 clonal line, CRISPR HiBiT knock-in at the endogenous BRAF V600E locus)
T1 sequence (P15056 whole entry V600E): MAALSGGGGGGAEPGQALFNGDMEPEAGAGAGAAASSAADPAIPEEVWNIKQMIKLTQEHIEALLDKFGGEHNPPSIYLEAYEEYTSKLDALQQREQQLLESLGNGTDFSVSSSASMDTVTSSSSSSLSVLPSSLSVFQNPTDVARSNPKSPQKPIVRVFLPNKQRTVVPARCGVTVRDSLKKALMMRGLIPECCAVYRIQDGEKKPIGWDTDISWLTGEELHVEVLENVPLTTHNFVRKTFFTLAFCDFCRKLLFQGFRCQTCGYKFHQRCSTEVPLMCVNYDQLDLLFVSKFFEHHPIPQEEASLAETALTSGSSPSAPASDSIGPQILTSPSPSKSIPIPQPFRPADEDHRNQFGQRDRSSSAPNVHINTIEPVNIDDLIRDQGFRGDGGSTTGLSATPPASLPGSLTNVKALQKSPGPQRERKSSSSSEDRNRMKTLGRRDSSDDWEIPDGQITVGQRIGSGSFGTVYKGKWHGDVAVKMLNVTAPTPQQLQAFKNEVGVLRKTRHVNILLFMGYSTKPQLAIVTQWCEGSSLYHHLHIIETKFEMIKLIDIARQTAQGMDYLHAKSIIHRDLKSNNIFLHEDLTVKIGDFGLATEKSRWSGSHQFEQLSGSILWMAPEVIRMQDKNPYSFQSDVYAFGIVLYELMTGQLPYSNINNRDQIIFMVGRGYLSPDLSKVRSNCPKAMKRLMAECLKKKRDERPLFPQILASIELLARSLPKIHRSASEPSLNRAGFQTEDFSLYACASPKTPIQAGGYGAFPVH
T1 sequence (Q96SW2 whole entry): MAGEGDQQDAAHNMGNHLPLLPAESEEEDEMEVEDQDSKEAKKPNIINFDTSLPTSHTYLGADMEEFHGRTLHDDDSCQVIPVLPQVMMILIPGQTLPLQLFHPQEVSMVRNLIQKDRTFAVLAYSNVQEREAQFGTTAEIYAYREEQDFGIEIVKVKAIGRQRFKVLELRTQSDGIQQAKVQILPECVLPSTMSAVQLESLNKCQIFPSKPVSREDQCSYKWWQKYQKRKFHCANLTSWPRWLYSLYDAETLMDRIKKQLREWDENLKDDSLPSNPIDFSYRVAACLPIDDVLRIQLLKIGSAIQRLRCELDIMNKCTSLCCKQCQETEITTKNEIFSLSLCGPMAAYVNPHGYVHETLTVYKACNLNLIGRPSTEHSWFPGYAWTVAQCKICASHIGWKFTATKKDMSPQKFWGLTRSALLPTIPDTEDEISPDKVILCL
T1 sequence (Q16531 whole entry partner): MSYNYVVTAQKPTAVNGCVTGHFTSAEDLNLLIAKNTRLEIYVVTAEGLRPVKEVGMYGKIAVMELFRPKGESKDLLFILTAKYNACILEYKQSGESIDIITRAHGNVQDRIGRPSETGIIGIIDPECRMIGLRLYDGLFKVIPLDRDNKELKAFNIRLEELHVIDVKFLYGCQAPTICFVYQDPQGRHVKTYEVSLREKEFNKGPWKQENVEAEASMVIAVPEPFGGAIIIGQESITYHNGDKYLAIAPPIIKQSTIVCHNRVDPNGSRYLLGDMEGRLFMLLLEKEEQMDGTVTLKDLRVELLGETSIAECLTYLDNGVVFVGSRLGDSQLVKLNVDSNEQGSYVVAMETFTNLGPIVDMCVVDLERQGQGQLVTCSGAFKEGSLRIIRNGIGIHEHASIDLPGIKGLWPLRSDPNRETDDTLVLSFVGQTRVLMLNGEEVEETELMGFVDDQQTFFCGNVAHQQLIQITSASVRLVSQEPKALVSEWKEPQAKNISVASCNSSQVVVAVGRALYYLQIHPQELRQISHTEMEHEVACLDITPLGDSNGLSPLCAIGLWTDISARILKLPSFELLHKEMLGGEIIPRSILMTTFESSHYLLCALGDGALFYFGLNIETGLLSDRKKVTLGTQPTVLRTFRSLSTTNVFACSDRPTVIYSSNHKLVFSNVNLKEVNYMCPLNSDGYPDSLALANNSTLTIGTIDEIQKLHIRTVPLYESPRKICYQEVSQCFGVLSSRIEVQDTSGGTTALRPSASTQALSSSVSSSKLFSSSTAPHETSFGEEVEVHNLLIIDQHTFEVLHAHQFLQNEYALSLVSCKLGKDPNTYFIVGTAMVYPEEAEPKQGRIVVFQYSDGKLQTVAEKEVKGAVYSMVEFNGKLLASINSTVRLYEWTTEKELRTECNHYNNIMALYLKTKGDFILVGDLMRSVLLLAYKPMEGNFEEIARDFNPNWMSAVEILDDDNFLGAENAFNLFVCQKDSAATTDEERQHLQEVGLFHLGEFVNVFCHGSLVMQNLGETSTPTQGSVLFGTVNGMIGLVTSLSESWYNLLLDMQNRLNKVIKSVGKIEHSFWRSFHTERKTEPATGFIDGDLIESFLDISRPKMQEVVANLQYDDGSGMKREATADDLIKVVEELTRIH
Method in brief: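 Endogenous HiBiT knock-in on BRAF V600E in A375 cells (clone A375.10); 11-point half-log series, top 10 μM, 2, 6 or 24 h at 37° C. Lytic HiBiT luminescence, background-subtracted, normalized to DMSO; 4-parameter fit gives DC50, Emax (residual protein) and IP (inflection point).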

[2] = tested on: A375-NRAS^Q61K cells; test: CTGlo Cell Viability Assay, A375-NRAS^Q61K (A375.11) cells, 96 hours; type: cell-based, human; conditions: A375.11 (A375-NRAS^Q61K) cells; for CTGlo A375.11 96 hours Emax / Emax: lowest % viability achieved
Method in brief: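 A375 cells carrying BRAF V600E and NRAS Q61K were seeded at 250 cells/well with a 10-point half-log dose series (max 10 μM final). After 96 h at 37 °C, viability was read as ATP luminescence (CellTiter-Glo), background-subtracted and normalized to DMSO (100%). GI50 from 4-parameter fit; Emax is the lowest % viability.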

[3] = A375.10 cells, BRAF V600E, 2 hours, inflection point, read-out: HiBiT-Degradation A375.10 BRAF 2 hours IP
[4] = A375.10 cells, BRAF V600E, 2 hours, read-out: HiBiT-Degradation A375.10 BRAF 2 hours DC50
[5] = A375.10 cells, BRAF V600E, 2 hours, residual protein remaining
[6] = A375.10 cells, BRAF V600E, 6 hours, inflection point, read-out: HiBiT-Degradation A375.10 BRAF 6 hours IP
[7] = A375.10 cells, BRAF V600E, 6 hours, read-out: HiBiT-Degradation A375.10 BRAF 6 hours DC50
[8] = A375.10 cells, BRAF V600E, 6 hours, residual protein remaining
[9] = A375.10 cells, HiBiT, BRAF V600E, 24 hours
[10] = A375.10 cells, HiBiT, BRAF V600E, 24 hours, read-out: HiBiT-Degradation A375.10 BRAF 24 hours DC50
[11] = A375.10 cells, HiBiT, BRAF V600E, 24 hours, read-out: HiBiT-Degradation A375.10 BRAF 24 hours IP
[12] = A375.10 cells, BRAF V600E, 2 hours, residual protein remaining, read-out: HiBiT-Degradation A375.10 BRAF 2 hours Emax
[13] = A375.10 cells, HiBiT, BRAF V600E, 24 hours, read-out: HiBiT-Degradation A375.10 BRAF 24 hours Emax

| Compound | DC50 [1, 3] [µM] | DC50 [1, 4] [µM] | HiBiT-Degradation A375.10 BRAF 2 hours Emax [1, 5] | DC50 [1, 6] [µM] | DC50 [1, 7] [µM] | HiBiT-Degradation A375.10 BRAF 6 hours Emax [1, 8] | HiBiT-Degradation A375.10 BRAF 24 hours Emax [1, 9] | DC50 [1, 10] [µM] | DC50 [1, 11] [µM] | GI50 [2] [µM] | CTGlo A375.11 96 hours Emax [2] | Emax [1, 12] [%] | HiBiT-Degradation A375.10 BRAF 2 hours Emax [1] | Emax [1, 13] [%] | Emax ([1]; read-out: HiBiT-Degradation A375.10 BRAF 2 hours Emax, A375.10 cells, BRAF V600E, 2 hours, residual protein remaining) [%] | Emax ([2]; Homo sapiens, 96 h) [%] | GI50 ([2]; Homo sapiens, 96 h) [µM] |
| --- | --- | --- | --- | --- | --- | --- | --- | --- | --- | --- | --- | --- | --- | --- | --- | --- | --- |
| CN(CCO)S(=O)(=O)Nc1ccc(F)c(Oc2ccc3ncn(C4CC5(CCN(C6CCC(c7cc8c(cc7F)c(N7CCC(=O)NC7=O)nn8C)CC6)CC5)C4)c(=O)c3c2)c1C#N (single isomer, unassigned) [Compound 82, 6-[2-cyano-6-fluoro-3-[[2-hydroxyethyl(methyl)sulfamoyl]amino]phenoxy]-3-[7-[4-[3-(2,4-dioxohexahydropyrimidin-1-yl)-5-fluoro-1-methyl-indazol-6-yl]cyclohexyl]-7-azaspiro[3.5]nonan-2-yl]-4-oxo-quinazoline] | < 1 | 1 to 10 | ** (<90% and >50%) | < 1 | < 1 | *** (<=50%) | *** (<=50%) | < 1 | < 1 | 1 to 10 | ** (<90% and >50%) |  |  |  |  |  |  |
| CCN(C)S(=O)(=O)Nc1ccc(F)c(Oc2ccc3ncn(C4CCC5(CC4)CCN(C4CCC(c6ccc(NC7CCC(=O)NC7=O)cc6F)CC4)CC5)c(=O)c3c2)c1C#N (single isomer, unassigned) [Compound 10, 9-[6-[2-cyano-3-[[ethyl(methyl)sulfamoyl]amino]-6-fluoro-phenoxy]-4-oxo-quinazolin-3-yl]-3-[4-[4-[(2,6-dioxo-3-piperidyl)amino]-2-fluoro-phenyl]cyclohexyl]-3-azaspiro[5.5]undecane] | < 1 | > 10 |  |  |  |  |  |  |  | 1 to 10 | *** (<=50%) | 50 to 90 |  |  |  |  |  |
| CCN(C)S(=O)(=O)Nc1ccc(F)c(Oc2ccc3ncn([C@@H]4COC5(CCN(C6CCC(c7cc8c(cc7F)c(N7CCC(=O)NC7=O)nn8C)CC6)CC5)C4)c(=O)c3c2F)c1C#N (single isomer, unassigned) [Compound 47] | < 1 | < 1 |  | < 1 | < 1 | *** (<=50%) | *** (<=50%) | < 1 | < 1 | 1 to 10 | ** (<90% and >50%) |  | *** (<=50%) |  |  |  |  |
| CCN(C)S(=O)(=O)Nc1ccc(F)c(Oc2ccc3ncn([C@@H]4COC5(C4)CN(C4CCC(c6cc7c(cc6F)c(N6CCC(=O)NC6=O)nn7C)CC4)C5)c(=O)c3c2)c1C#N (single isomer, unassigned) [Compound 238] | < 1 | < 1 | *** (<=50%) |  |  |  |  | < 1 | < 1 | < 1 | ** (<90% and >50%) |  |  | < 50 |  |  |  |
| CCN(C)S(=O)(=O)Nc1ccc(F)c(Oc2ccc3ncn(C4CC5(C4)CN(C4CCC(c6cc7c(cc6F)c(N6CCC(=O)NC6=O)nn7C)CC4)C5)c(=O)c3c2)c1C#N (single isomer, unassigned) [Compound 203, 6-[2-cyano-3-[[ethyl(methyl)sulfamoyl]amino]-6-fluoro-phenoxy]-3-[2-[4-[3-(2,4-dioxohexahydropyrimidin-1-yl)-5-fluoro-1-methyl-indazol-6-yl]cyclohexyl]-2-azaspiro[3.3]heptan-6-yl]-4-oxo-quinazoline] | < 1 | < 1 |  |  |  |  |  | < 1 | < 1 | > 10 |  |  |  | < 50 | < 50 | 50 to 90 |  |
| CCN(C)S(=O)(=O)Nc1ccc(F)c(Oc2ccc3ncn([C@H]4COC5(CCN(CC6CN(c7cc8c(cc7F)c(N7CCC(=O)NC7=O)nn8C)C6)CC5)C4)c(=O)c3c2)c1C#N [Compound 231, (3R)-3-[6-[2-cyano-3-[[ethyl(methyl)sulfamoyl]amino]-6-fluoro-phenoxy]-4-oxo-quinazolin-3-yl]-8-[[1-[3-(2,4-dioxohexahydropyrimidin-1-yl)-5-fluoro-1-methyl-indazol-6-yl]azetidin-3-yl]methyl]-1-oxa-8-azaspiro[4.5]decane] | < 1 | < 1 |  |  |  |  |  | < 1 | < 1 |  |  | 50 to 90 |  | < 50 |  | 50 to 90 | 1 to 10 |
| CN(CCO)S(=O)(=O)Nc1ccc(F)c(Oc2ccc3ncc(C4CC5(CCN(C6CCC(c7cc8c(cc7F)c(N7CCC(=O)NC7=O)nn8C)CC6)CC5)C4)nc3c2)c1C#N (single isomer, unassigned) [Compound 295, 7-[2-cyano-6-fluoro-3-[[2-hydroxyethyl(methyl)sulfamoyl]amino]phenoxy]-2-[7-[4-[3-(2,4-dioxohexahydropyrimidin-1-yl)-5-fluoro-1-methyl-indazol-6-yl]cyclohexyl]-7-azaspiro[3.5]nonan-2-yl]quinoxaline] | < 1 | < 1 | ** (<90% and >50%) |  |  |  |  |  |  | 1 to 10 | * (>=90%) |  |  |  |  |  |  |
| Cn1nc(N2CCC(=O)NC2=O)c2cc(F)c([C@H]3CC[C@@H](N4CCC5(CC4)CC(c4cnc6ccc(Oc7c(F)ccc(NS(=O)(=O)N8CC[C@@H](F)C8)c7C#N)cc6n4)C5)CC3)cc21 (single isomer, unassigned) [Compound 268] | < 1 | < 1 |  |  |  |  |  |  |  |  |  | < 50 |  |  |  | < 50 | < 1 |
| CCN(C)S(=O)(=O)Nc1ccc(F)c(Oc2ccc3ncn(C4CC5(C4)CN(CC4CN(c6cc7c(cc6F)c(N6CCC(=O)NC6=O)nn7C)C4)C5)c(=O)c3c2)c1C#N [Compound 313] | < 1 | < 1 |  |  |  |  |  | < 1 | < 1 |  |  | 50 to 90 |  | < 50 |  | 50 to 90 | < 1 |
| CN(CCO)S(=O)(=O)Nc1ccc(F)c(Oc2ccc3ncc(C4CC5(C4)CN(C4CCC(c6cc7c(cc6F)c(N6CCC(=O)NC6=O)nn7C)CC4)C5)nc3c2)c1C#N (single isomer, unassigned) [Compound 321, 7-[2-cyano-6-fluoro-3-[[2-hydroxyethyl(methyl)sulfamoyl]amino]phenoxy]-2-[2-[4-[3-(2,4-dioxohexahydropyrimidin-1-yl)-5-fluoro-1-methyl-indazol-6-yl]cyclohexyl]-2-azaspiro[3.3]heptan-6-yl]quinoxaline] | < 1 | 1 to 10 | * (>=90%) |  |  |  |  |  |  |  |  |  |  |  |  | 50 to 90 | > 10 |
| CCN(C)S(=O)(=O)Nc1ccc(F)c(Oc2ccc3ncc(OCC4CCN(C5CCC(c6cc7c(cc6F)c(N6CCC(=O)NC6=O)nn7C)CC5)CC4)nc3c2)c1C#N (single isomer, unassigned) [Compound 119, 7-[2-cyano-3-[[ethyl(methyl)sulfamoyl]amino]-6-fluoro-phenoxy]-2-[[1-[4-[3-(2,4-dioxohexahydropyrimidin-1-yl)-5-fluoro-1-methyl-indazol-6-yl]cyclohexyl]-4-piperidyl]methoxy]quinoxaline] | < 1 | < 1 |  |  |  |  |  |  |  | 1 to 10 | ** (<90% and >50%) |  | ** (<90% and >50%) |  |  |  |  |
